The values below come from PubChem BioAssay AID212 (DTP/NCI, 2004).

Where “and” joins values, the source holds several entries; their conditions need not be identical. Equal values may be shown once. Inconclusive results are not listed.

The subject of the test is BDF1 mice, colon carcinoma 38 sc, T/C %. As to the kind of experiment: NCI In Vivo Anticancer Drug Screen. Data for tumor model Colon Carcinoma 38 (subcutaneous) in B6D2F1 (BDF1) mice. The note with it: endpoint: median tumor weight (est.), higher = larger tumour. The essentials: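 Transplantable tumor in mice; compound-treated vs vehicle-dosed controls. Measured survival or tumor size; value = T ÷ C.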

Setting [1] is: dose: 12.5 mg/kg/injection, schedule: Q07DX002 (ip), vehicle: saline with Tween-80.
Where [2] appears, read: dose: 25.0 mg/kg/injection, schedule: Q07DX002 (ip), vehicle: saline with Tween-80.
[3] abbreviates: dose: 50.0 mg/kg/injection, schedule: Q07DX002 (ip), vehicle: saline with Tween-80.
[4] abbreviates: dose: 200.0 mg/kg/injection, schedule: Q07DX002 (ip), vehicle: saline with Tween-80.
The mark [5] stands for this setting: dose: 400.0 mg/kg/injection, schedule: Q07DX002 (ip), vehicle: saline with Tween-80.
Setting [6] is: dose: 12.5 mg/kg/injection, schedule: Q07DX002 (ip), vehicle: saline.
Where [7] appears, read: dose: 25.0 mg/kg/injection, schedule: Q07DX002 (ip), vehicle: saline.
Setting [8] is: dose: 50.0 mg/kg/injection, schedule: Q07DX002 (ip), vehicle: saline.
The mark [9] stands for this setting: dose: 100.0 mg/kg/injection, schedule: Q07DX002 (ip), vehicle: saline.
Where [10] appears, read: dose: 6.25 mg/kg/injection, schedule: Q07DX002 (ip), vehicle: saline.
The mark [11] stands for this setting: dose: 25.0 mg/kg/injection, schedule: Q07DX002 (ip), vehicle: Klucel (hydroxypropylcellulose) (HPC).
Where [12] appears, read: dose: 100.0 mg/kg/injection, schedule: Q07DX002 (ip), vehicle: Klucel (hydroxypropylcellulose) (HPC).
The mark [13] stands for this setting: dose: 200.0 mg/kg/injection, schedule: Q07DX002 (ip), vehicle: Klucel (hydroxypropylcellulose) (HPC).
The mark [14] stands for this setting: dose: 50.0 mg/kg/injection, schedule: Q07DX002 (ip), vehicle: Klucel (hydroxypropylcellulose) (HPC).
The mark [15] stands for this setting: dose: 100.0 mg/kg/injection, schedule: Q07DX002 (ip), vehicle: saline with Tween-80.

For the compound `CCCCCCC/C=C/C(=O)OC1C(OC2C(OC(CCCCCCC)CC(=O)OC(CCCCCCC)CC(=O)O)OC(C)C(O)C2O)OC(C)C(O)C1O` (stereo unspecified), the T/C reads like this: (dose: 28.0 mg/kg/injection, schedule: Q07DX002 (ip), vehicle: Klucel (hydroxypropylcellulose) (HPC)) 79 % of control; (dose: 112.0 mg/kg/injection, schedule: Q07DX002 (ip), vehicle: Klucel (hydroxypropylcellulose) (HPC)) 123 % of control; (dose: 225.0 mg/kg/injection, schedule: Q07DX002 (ip), vehicle: Klucel (hydroxypropylcellulose) (HPC)) 42 % of control.

`O=C(CCBr)N1CCN(C(=O)CCBr)CC1`: the T/C reads like this: (dose: 10.0 mg/kg/injection, schedule: Q07DX002 (ip), vehicle: saline with Tween-80) 90 % of control; (dose: 10.0 mg/kg/injection, schedule: Q07DX002 (ip), vehicle: water) 172 % of control; (dose: 20.0 mg/kg/injection, schedule: Q07DX002 (ip), vehicle: saline with Tween-80) 111 % of control; (dose: 20.0 mg/kg/injection, schedule: Q07DX002 (ip), vehicle: water) 109 % of control; (dose: 40.0 mg/kg/injection, schedule: Q07DX002 (ip), vehicle: saline with Tween-80) 60 % of control; (dose: 40.0 mg/kg/injection, schedule: Q07DX002 (ip), vehicle: water) 157 % of control. The T/C reads like this: (dose: 80.0 mg/kg/injection, schedule: Q07DX002 (ip), vehicle: saline with Tween-80) 69 % of control and 78 % of control; (dose: 80.0 mg/kg/injection, schedule: Q07DX002 (ip), vehicle: water) 120 % of control; (dose: 160.0 mg/kg/injection, schedule: Q07DX002 (ip), vehicle: water) 91 % of control; (dose: 320.0 mg/kg/injection, schedule: Q07DX002 (ip), vehicle: water) 67 % of control.

For the compound `C/C(=N\NC(N)=O)c1cccc(/C(C)=N/NC(N)=O)n1`, the T/C under setting [1] was 87 % of control and 94 % of control; the T/C under setting [2] was 66 % of control and 71 % of control; the T/C under setting [3] was 73 % of control and 96 % of control; the T/C under setting [4] is 96 % of control; the T/C under setting [5] is 57 % of control.

For the compound `O=C(O)C(O)C(O)C1[O][Sb][O]C1C(=O)O` (stereo unspecified), the T/C was 90 % of control under setting [6], 35 % of control under setting [7], 109 % of control under setting [8] and 85 % of control under setting [9].

For `CCOC(C)C(/C=N/NC(N)=S)=NNC(N)=S` (stereo unspecified), the T/C is 111 % of control (dose: 12.5 mg/kg/injection, schedule: Q07DX003 (ip), vehicle: saline with Tween-80); 61 % of control (dose: 25.0 mg/kg/injection, schedule: Q07DX003 (ip), vehicle: saline with Tween-80); 99 % of control (dose: 50.0 mg/kg/injection, schedule: Q07DX003 (ip), vehicle: saline with Tween-80); 155 % of control (dose: 100.0 mg/kg/injection, schedule: Q07DX003 (ip), vehicle: saline with Tween-80); 73 % of control (dose: 200.0 mg/kg/injection, schedule: Q07DX003 (ip), vehicle: saline with Tween-80); 66 % of control (dose: 400.0 mg/kg/injection, schedule: Q07DX003 (ip), vehicle: saline with Tween-80).

On to `C=C1C(=O)OC2CC(C)C3C4OC4C(O)C3(C)C(O)C12` (stereo unspecified), for which the T/C by setting is: under setting [10], 115 % of control; under setting [6], 118 % of control; under setting [7], 116 % of control; under setting [8], 80 % of control; under setting [9], 155 % of control.

With `CC(=O)NC(CCc1ccc(Cl)c(Cl)c1)c1cccc(O)c(=O)c1` (stereo unspecified), the T/C under setting [11] is 161 % of control, the T/C under setting [12] was 109 % of control and the T/C under setting [13] is 122 % of control.

Consider `O=C(O)C1(NO)CCCCC1`, for which the T/C was 56 % of control under setting [11]; 86 % of control and 105 % of control under setting [14]; 118 % of control and 94 % of control (dose: 400.0 mg/kg/injection, schedule: Q07DX002 (ip), vehicle: Klucel (hydroxypropylcellulose) (HPC)); 112 % of control and 103 % of control (dose: 800.0 mg/kg/injection, schedule: Q07DX002 (ip), vehicle: Klucel (hydroxypropylcellulose) (HPC)).

As for `N=C(N)CCCCCCCCC(=N)N`, the T/C (dose: 1.56 mg/kg/injection, schedule: Q07DX002 (ip), vehicle: saline) is 102 % of control; the T/C (dose: 3.12 mg/kg/injection, schedule: Q07DX002 (ip), vehicle: saline) was 88 % of control and 99 % of control; the T/C under setting [10] was 107 % of control; the T/C under setting [6] was 76 % of control; the T/C under setting [7] was 112 % of control.

Consider `C[n+]1c(/C=N/NC(N)=S)ccc2ccccc21`, for which the T/C reads like this: under setting [1], 115 % of control; under setting [2], 83 % of control; under setting [3], 77 % of control; under setting [15], 87 % of control; under setting [4], 108 % of control; under setting [5], 118 % of control.

Consider `O=NN(CCCl)C(=O)Oc1ccc(OC(=O)N(CCCl)N=O)cc1`, for which the T/C is 75 % of control (dose: 6.25 mg/kg/injection, schedule: Q07DX002 (ip), vehicle: Klucel (hydroxypropylcellulose) (HPC)); 72 % of control (dose: 12.5 mg/kg/injection, schedule: Q07DX002 (ip), vehicle: Klucel (hydroxypropylcellulose) (HPC)); 85 % of control under setting [11]; 54 % of control under setting [14].

With `N#C[C@H](OC1OC(COC2OC(CO)C(O)C(O)C2O)C(O)C(O)C1O)c1ccccc1` (stereo partly specified), the T/C under setting [8] was 76 % of control; the T/C (dose: 50.0 mg/kg/injection, schedule: Q07DX002 (ip), vehicle: water) was 70 % of control; the T/C under setting [9] is 103 % of control; the T/C (dose: 100.0 mg/kg/injection, schedule: Q07DX002 (ip), vehicle: water) is 70 % of control; the T/C (dose: 200.0 mg/kg/injection, schedule: Q07DX002 (ip), vehicle: saline) is 62 % of control; the T/C (dose: 200.0 mg/kg/injection, schedule: Q07DX002 (ip), vehicle: water) is 85 % of control. The T/C runs as follows: (dose: 400.0 mg/kg/injection, schedule: Q07DX002 (ip), vehicle: saline) 76 % of control; (dose: 400.0 mg/kg/injection, schedule: Q07DX002 (ip), vehicle: water) 112 % of control; (dose: 800.0 mg/kg/injection, schedule: Q07DX002 (ip), vehicle: saline) 87 % of control; (dose: 800.0 mg/kg/injection, schedule: Q07DX002 (ip), vehicle: water) 83 % of control; (dose: 1600.0 mg/kg/injection, schedule: Q07DX002 (ip), vehicle: saline) 98 % of control; (dose: 1600.0 mg/kg/injection, schedule: Q07DX002 (ip), vehicle: water) 106 % of control.

As for `O=c1n(CC2CO2)c(=O)n(CC2CO2)c(=O)n1CC1CO1` (stereo unspecified), the T/C is 121 % of control (dose: 12.0 mg/kg/injection, schedule: Q07DX002 (ip), vehicle: saline with Tween-80); 170 % of control under setting [1]; 101 % of control and 88 % of control and 89 % of control (dose: 12.5 mg/kg/injection, schedule: Q07DX002 (ip), vehicle: suspension in saline); 43 % of control (dose: 25.0 mg/kg/injection, schedule: Q07DX003 (ip), vehicle: saline); 119 % of control and 102 % of control under setting [3]; 66 % of control and 42 % of control and 62 % of control (dose: 50.0 mg/kg/injection, schedule: Q07DX002 (ip), vehicle: suspension in saline). The T/C (dose: 50.0 mg/kg/injection, schedule: Q07DX003 (ip), vehicle: saline) was 36 % of control; the T/C under setting [15] is 42 % of control and 65 % of control; the T/C (dose: 100.0 mg/kg/injection, schedule: Q07DX002 (ip), vehicle: suspension in saline) was 81 % of control; the T/C (dose: 200.0 mg/kg/injection, schedule: Q07DX002 (ip), vehicle: suspension in saline) is 81 % of control.

As for `CC(C)NC(=O)N(CCCCBr)N=O`, the T/C was 90 % of control under setting [11], 86 % of control under setting [14], 70 % of control under setting [12] and 56 % of control under setting [13].
